Reference: paper PMC7826790, “Glucose 6-Phosphate Dehydrogenase from Trypanosomes: Selectivity for Steroids and Chemical Validation in Bloodstream Trypanosoma brucei” (Molecules, 2021)
Read-outs that look alike come from different tables or passages of the source.

Experiments:
[1] = tested on: T. cruzi epimastigotes (strain DM28); assay: Cell viability of T. cruzi epimastigotes (propidium iodide, flow cytometry); conditions: 72 h; for cytotoxicity at 50 µM: read-out: % Cytotoxicity (50 µM) T. Cruzi Epimastigote Form, 50 µM, 72 h
Method: T. cruzi epimastigotes (strain DM28) were grown at 28 °C in LIT medium supplemented with 10% (v/v) Fetal Bovine Serum (FBS; GIBCO®), 7.5 mM hemin and antibiotics (penicillin 10 U/mL– streptomycin 10 µg/mL). […] Thereafter, 200 µL from each well were transferred to individual cytometer tubes.
EC50 values were obtained from the corresponding concentration/response plots fitted to a sigmoidal Hill equation or extrapolated from nonlinear fitting equations. The errors were calculated using error propagations and are expressed as S.D. estimated as σ^(n−1).

[2] = tested on: Bloodstream T. b. brucei (strain 427- cell line 514-1313); assay: Cell viability of bloodstream T. b. brucei (bioluminescent assay); assay type: cell-based, Trypanosoma brucei brucei; conditions: for EC50: 24 h incubation, read-out: EC50 T. brucei Bloodstream Form; for Selectivity Index (CC50 for murine macrophages/EC50 for T. brucei): DHEA: Hek293T CC50, Conessine: L6 CC50
Method: Parasite viability was performed as described in [72]. […] Thereafter, 200 µL from each well were transferred to a 96-well black plate and incubated with 20 µL of a solution containing: 1.5 mg/mL luciferin in PBS glucose 1% (w/v) and Triton X-100.

[3] = Cytotoxicity to murine macrophages (WST-1); assay type: cell-based; conditions: mouse, J774 murine macrophage cells, read-out: CC50 Murine Macrophage (Cell Line J774)
Method: (§2) Cell viability was assessed using the WST-1 reagent.
(§3) EC50 values were obtained from the corresponding concentration/response plots fitted to a sigmoidal Hill equation or extrapolated from nonlinear fitting equations.

T. cruzi G6PDH [4] = molecular target: T1, T. cruzi G6PDH (Trypanosoma cruzi, UniProt Q4E0B2); assay: biochemical; assay type: biochemical
Method: (§1) E. coli Tuner (DE3) cells were transformed with the pET28a (+) and pHis constructs encoding for N-terminally hexa histidine-tagged TcG6PDHL and HsG6PDH, respectively, and grown overnight in LB medium with […] and […], respectively. […] Thereafter, the cultures were incubated for 20 h at 25 °C and 170 rpm. Cells were harvested by centrifugation (5000× g, 10 min, 4 °C), resuspended in buffer A (50 mM Tris, pH of 8.0, 500 mM NaCl and 5 mM MgCl2) containing a complete™ Protease Inhibitor Cocktail prepared as indicated by the provider (Sigma-Aldrich-Merck, Germany); afterwards, we added 1 mg/mL of lysozyme and incubated the cells for 1 h at 4 °C. […] Protein concentration was determined from the absorbance values at 280 nm and the corresponding theoretical absorbance coefficients.
All reactions were performed in 50 mM Tris (pH 7.5) with 5 mM MgCl2 and 250 mM NaCl in a final volume of 500 µL. […] For each enzyme, a control reaction in the presence of 1% (v/v) DMSO was run. Stock and working solutions of compounds were prepared in 100% (v/v) DMSO. […] The initial velocities were calculated from the first 45 s of the reaction and normalized to the corresponding enzyme control. All measurements were performed at least in triplicate using a Cary 50 Bio spectrophotometer (Agilent Technologies, Santa Clara, CA, USA) at RT. The initial rates were determined with the Origin Pro 8.0 software (OriginLab Corporation, Northampton, MA, USA), and the IC50 values were calculated by nonlinear regression using the GraphPad Prism 5.0 software (GraphPad Inc., San Diego, CA, USA).

human G6PDH [5] = molecular target: T2, human G6PDH (Homo sapiens, UniProt P11413); assay: G6PDH enzymatic assay, recombinant human G6PDH (NADPH formation at 340 nm); assay type: biochemical, H. sapiens; conditions: for inhibition at 100 µM: read-out: % inhibition of human G6PDH; for inhibition of human G6PDH at highest concentration: 100 µM
T2 construct: hexa-histidine (His6) (N); made in house; host or cells: E. coli Tuner (DE3), pHis vector
Method: as §1, with “°C. Cells were further lysed by three cycles of sonication (45% amplitude, 2 s pulse on/off, for 1 min) using a macrotip in a Branson Digital Sonifier 450 (Marshall Scientific, Hampton, VA, USA) and debris was removed by centrifugation at 27,000× g for 45 min at 4 °C and filtrated through a 0.45 µm filter (Millipore-Merck, Darmstadt, Germany).” for “°C.”
G6PDH activity was determined at room temperature (RT) by monitoring NADPH (ε340 = 6220 M^−1 cm^−1) formation at 340 nm. All reactions were performed in 50 mM Tris (pH 7.5) with 5 mM MgCl2 and 250 mM NaCl in a final volume of 500 µL. The reactions were started by the addition of 700 µM NADP^+ and 6 mM G6P for TcG6PDH or by the addition of 250 µM NADP^+ and 1 mM G6P for the human enzyme. For each enzyme, a control reaction in the presence of 1% (v/v) DMSO was run. Stock and working solutions of compounds were prepared in 100% (v/v) DMSO. […] The initial velocities were calculated from the first 45 s of the reaction and normalized to the corresponding enzyme control. All measurements were performed at least in triplicate using a Cary 50 Bio spectrophotometer (Agilent Technologies, Santa Clara, CA, USA) at RT. The initial rates were determined with the Origin Pro 8.0 software (OriginLab Corporation, Northampton, MA, USA), and the IC50 values were calculated by nonlinear regression using the GraphPad Prism 5.0 software (GraphPad Inc., San Diego, CA, USA).

[6] = tested on: Murine macrophages (cell line J774); assay: Cytotoxicity to murine macrophages (WST-1); assay type: cell-based; conditions: 24 h, read-out: CC50 Murine Macrophage (Cell Line J774)
Method: as §2, §3

human G6PDH [7] = molecular target: T2, human G6PDH; set-up: method as in PMID 22506561; conditions: read-out: IC50 H. sapiens G6PDH; cited from earlier work
[8] = tested on: mammalian L6 cell line from rat skeletal myoblasts; set-up: method as in PMID 28684718; conditions: printed in the macrophage column; read-out: CC50 against mammalian L6 cell line; cited from earlier work
[9] = tested on: Bloodstream T. b. brucei expressing the redox biosensor hGrxroGFP2; assay: Redox reporter assay (hGrx1-roGFP2 biosensor, flow cytometry); assay type: cell-based, Trypanosoma brucei brucei
Method: Bloodstream T. b. brucei expressing the redox biosensor hGrxroGFP2 was grown as described elsewhere. […] Next, 50 µL from each well were transferred to a 96-well plate, containing 100 µL of sterile PBS with glucose 1% (w/v). […] GFP fluorescence (filter λem = 530/40 nm) was only analyzed for viable cells (PI negative). The data were processed and analyzed with the C6Accuri software. Samples were analyzed in triplicate and the error is expressed as S.D.

[10] = tested on: Bloodstream T. b. brucei (strain 427- cell line 514-1313); set-up: method as in PMID 28684718; conditions: read-out: EC50 T. brucei Bloodstream Form, cited from earlier work
Hek293T = conditions: read-out: CC50 against Hek293T; printed in the macrophage column; cited from earlier work
T. cruzi G6PDH [11] = molecular target: T1, T. cruzi G6PDH; conditions: read-out: IC50 T. cruzi G6PDH, cited from earlier work
L. mexicana G6PDH = conditions: cited from earlier work
[12] = tested on: G6PDH in T. cruzi strain CL Brenner epimastigotes; conditions: 24 h
[13] = recombinant human G6PDH, 250 µM NADP+, 1 mM G6P, RT, read-out: IC50 H. sapiens G6PDH

T2 sequence (P11413 whole entry): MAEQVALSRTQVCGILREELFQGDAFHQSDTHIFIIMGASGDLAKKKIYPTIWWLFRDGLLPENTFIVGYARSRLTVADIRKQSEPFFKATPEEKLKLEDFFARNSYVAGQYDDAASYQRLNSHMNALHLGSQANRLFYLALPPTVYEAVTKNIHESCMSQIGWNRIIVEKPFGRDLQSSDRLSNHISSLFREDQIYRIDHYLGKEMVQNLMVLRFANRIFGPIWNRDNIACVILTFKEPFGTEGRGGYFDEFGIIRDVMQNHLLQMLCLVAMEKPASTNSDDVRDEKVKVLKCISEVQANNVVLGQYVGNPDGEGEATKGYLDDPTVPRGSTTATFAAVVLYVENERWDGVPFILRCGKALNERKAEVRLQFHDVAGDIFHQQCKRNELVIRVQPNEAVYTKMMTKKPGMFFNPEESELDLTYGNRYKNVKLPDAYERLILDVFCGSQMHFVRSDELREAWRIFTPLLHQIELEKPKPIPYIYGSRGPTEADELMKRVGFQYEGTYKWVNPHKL
T1 sequence (Q4E0B2 entry or part of it): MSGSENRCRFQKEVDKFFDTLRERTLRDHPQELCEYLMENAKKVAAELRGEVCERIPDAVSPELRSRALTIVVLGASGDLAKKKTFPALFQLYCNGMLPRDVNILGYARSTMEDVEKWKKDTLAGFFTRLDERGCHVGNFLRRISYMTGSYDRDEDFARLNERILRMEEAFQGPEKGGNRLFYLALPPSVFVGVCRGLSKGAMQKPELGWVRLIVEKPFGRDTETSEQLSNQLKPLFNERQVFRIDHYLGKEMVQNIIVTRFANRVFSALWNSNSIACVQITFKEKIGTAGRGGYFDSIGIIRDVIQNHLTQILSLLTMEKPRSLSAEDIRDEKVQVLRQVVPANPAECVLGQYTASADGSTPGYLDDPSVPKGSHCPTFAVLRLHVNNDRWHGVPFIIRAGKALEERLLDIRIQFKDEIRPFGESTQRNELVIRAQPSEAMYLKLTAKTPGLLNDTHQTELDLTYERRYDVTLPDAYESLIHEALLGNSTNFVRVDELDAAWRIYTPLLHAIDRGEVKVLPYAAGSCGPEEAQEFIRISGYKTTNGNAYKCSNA

C[C@]12CC[C@H](O)C[C@@H]1CC[C@@H]1[C@@H]2CC[C@]2(C)C(=O)[C@H](Br)C[C@@H]12 [Compound 1, 16α-bromo-epiandrosterone]
% Cytotoxicity (50 µM) T. Cruzi Epimastigote Form [1]: 14.5 ± 5.3%
cytotoxicity at 50 µM ([1]; Trypanosoma cruzi): 15%
EC50 ([2]; Trypanosoma brucei, 24 h): 1.9 ± 0.2 µM
CC50 at 24 h [3]: 8.8 ± 1 µM

CC(=O)O[C@H]1CC[C@@]2(C)[C@@H](CC[C@@H]3[C@@H]2CC[C@]2(C)C(=O)[C@H](Br)C[C@@H]32)C1 [Compound 2]
IC50 (T. cruzi G6PDH [4]): 0.11 ± 0.02 µM
IC50 (human G6PDH [5]): > 100 µM
inhibition at 100 µM (human G6PDH [5]): 0%
cytotoxicity at 50 µM ([1]; Trypanosoma cruzi): 64 ± 4.1%
EC50 ([2]; Trypanosoma brucei, 24 h): 5.3 ± 0.4 µM
CC50 at 24 h [3]: 42 ± 1 µM

CC(=O)O[C@H]1CC[C@@]2(C)[C@@H](CC[C@@H]3[C@@H]2CC[C@]2(C)C(=O)[C@@H](Br)C[C@@H]32)C1 [Compound 3]
IC50 (T. cruzi G6PDH [4]): 1.5 ± 0.2 µM
IC50 (human G6PDH [5]): > 100 µM
inhibition of human G6PDH at highest concentration (human G6PDH [5]): inactive
% Cytotoxicity (50 µM) T. Cruzi Epimastigote Form [1]: 73.9 ± 3.4%
cytotoxicity at 50 µM ([1]; Trypanosoma cruzi): 74%
EC50 ([2]; Trypanosoma brucei, 24 h): 4.8 ± 0.5 µM
CC50 [6]: 1 ± 0.1 µM
CC50 at 24 h [3]: 0.96 µM

C[C@]12CC[C@H](O)CC1=CC[C@@H]1[C@@H]2CC[C@]2(C)C(=O)[C@H](Br)C[C@@H]12 [Compound 4]
IC50 (human G6PDH [5]; [13]): 48 ± 2.6 µM
cytotoxicity at 50 µM ([1]; Trypanosoma cruzi): 6.4 ± 1.6%
EC50 ([2]; Trypanosoma brucei, 24 h): 7.5 ± 0.3 µM
CC50 at 24 h [3]: 19 ± 3 µM

CC(=O)O[C@H]1CC[C@@]2(C)C(=CC[C@@H]3[C@@H]2CC[C@]2(C)C(=O)[C@H](Br)C[C@@H]32)C1 [Compound 5]
IC50 (T. cruzi G6PDH [4]): 0.079 ± 0.01 µM
IC50 (human G6PDH [5]): > 100 µM
inhibition at 100 µM (human G6PDH [5]): 0%
cytotoxicity at 50 µM ([1]; Trypanosoma cruzi): 30.9 ± 2.5%
EC50 ([2]; Trypanosoma brucei, 24 h): 18 ± 3 µM
CC50 at 24 h [3]: 39 ± 3 µM

CC(=O)O[C@H]1CC[C@@]2(C)C(=CC[C@@H]3[C@@H]2CC[C@]2(C)C(=O)[C@@H](Br)C[C@@H]32)C1 [Compound 6]
IC50 (T. cruzi G6PDH [4]): > 50 µM
IC50 (human G6PDH [5]): > 100 µM
inhibition of human G6PDH at highest concentration (human G6PDH [5]): inactive
% Cytotoxicity (50 µM) T. Cruzi Epimastigote Form [1]: 76.2 ± 0.8%
cytotoxicity at 50 µM ([1]; Trypanosoma cruzi): 76%
EC50 ([2]; Trypanosoma brucei, 24 h): 5.3 ± 0.5 µM
CC50 at 24 h [3]: 4.5 ± 0.4 µM

C[C@]12CC[C@H](O)CC1=CC[C@@H]1[C@@H]2CC[C@]2(C)C(=O)C(O)C[C@@H]12 (stereo partly shown) [Compound 7]
IC50 (human G6PDH [7]): 15.8 ± 3.3 µM
cytotoxicity at 50 µM ([1]; Trypanosoma cruzi): 3.9 ± 0.7%
EC50 [2]: > 24 µM
EC50 ([2]; Trypanosoma brucei, 24 h): 24 to 44 µM
CC50 at 24 h [3]: > 24 µM

C[C@H]1[C@H]2CC[C@H]3[C@@H]4CC=C5C[C@@H](N(C)C)CC[C@]5(C)[C@H]4CC[C@]23CN1C [Conessine, reference compound]
CC50 [8]: 61.2 µM
induction of oxidative stress in bloodstream trypanosomes [9]: did not induce oxidative stress
EC50 ([10]; footnote e): 0.42 ± 0.01 µM
inhibition of T. cruzi G6PDH at highest concentration (T. cruzi G6PDH [4]; 100 µM): did not inhibit
IC50 (T. cruzi G6PDH [4]; recombinant TcG6PDH, 700 µM NADP+, 6 mM G6P, RT, read-out: IC50 T. cruzi G6PDH): > 100 µM
inhibition of human G6PDH at highest concentration (human G6PDH [5]): did not inhibit
IC50 (human G6PDH [5]; [13]): > 100 µM
Selectivity Index (CC50 for murine macrophages/EC50 for T. brucei) [2]: 145.7

C[C@]12CC[C@H](O)CC1=CC[C@@H]1[C@@H]2CC[C@]2(C)C(=O)CC[C@@H]12 [DHEA, dehydroepiandrosterone]
CC50 (Hek293T): 25 ± 13 µM
IC50 (T. cruzi G6PDH [11]; TcG6PDH): 21.5 ± 0.5 µM
EC50 ([10]; footnote c): 43.8 ± 2 µM
inhibition of L. mexicana G6PDH (L. mexicana G6PDH): refractory
IC50 (human G6PDH [7]): ~10 µM

C[C@]12CC[C@H](O)C[C@@H]1CC[C@@H]1[C@@H]2CC[C@]2(C)C(=O)CC[C@@H]12 [EA, Epiandrosterone]
IC50 (T. cruzi G6PDH [11]; recombinant TcG6PDH): 3 ± 0.4 µM
EC50 ([10]; footnote c): 36.5 ± 3.6 µM
inhibition of L. mexicana G6PDH (L. mexicana G6PDH): refractory
IC50 (human G6PDH [7]): ~10 µM
G6PDH specific activity in cell extracts ([12]; 25 μM EA): 0.12 U/mg
G6PDH specific activity in cell extracts ([12]; 100 μM EA): 0.09 U/mg

CC1CS(=O)(=O)CCN1/N=C/c1ccc([N+](=O)[O-])o1 (stereo not shown) [Nifurtimox, reference compound]
cytotoxicity at 24 µM ([1]; Trypanosoma cruzi, read-out: % Cytotoxicity T. Cruzi Epimastigote Form, at 24 µM, 72 h): 46 ± 1.9%
Selectivity Index (CC50 for murine macrophages/EC50 for T. brucei) [2]: 23.3
EC50 ([2]; Trypanosoma brucei, 24 h): 6 ± 0.4 µM
CC50 at 24 h [3]: 140 ± 2 µM

CN(C)C(=O)/N=N/C(=O)N(C)C [diamide]
biosensor oxidation ([9]; 250 µM, 20 min): 54%
